We go through five compounds from US12098145B2 (Libra Therapeutics, Inc., priority 2022, dated 2024).

The target in test [1] is T1, TRPML1 (Homo sapiens, UniProt Q9GZU1).
T1 construct: expressed in transfected cells; host or cells: HEK T-REx cells stably expressing GCaMP6f and TRPML1
Kind of test: Cellular TRPML1 assay (FLIPR, GCaMP6f calcium read-out). The class given is cell-based. To be noted: HEKT-REx/GCaMP6f/TRPML1 cells, FLIPR TETRA, kinetic response over 300 seconds; read-out: TRPML1 FLIPR pEC50 (converted). Summed up:
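HEK T-REx cells stably expressing TRPML1 and GCaMP6f, seeded 24 h before in Optimem + 0.5% FBS. After ~10 min pre-incubation at room temperature, compounds in Ca2+-free Tyrode's buffer were injected on FLIPR Tetra (final DMSO 0.5%). Calcium fluorescence kinetics followed for 300 s.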

For test [2], the system named is TFEB. Description: TFEB translocation assay (TFEB reporter in U2OS cells, imaging). Type of test: cell-based. To be noted: Homo sapiens, read-out: TFEB Translocation pEC50 (converted). Summed up:
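U2OS cells stably expressing mRFP-fused TFEB reporter, switched to Opti-MEM then treated 2 h at 37 °C with compounds (0.5% DMSO, 0.015% Tween 80). Hoechst-stained, PFA-fixed cells imaged at 20×; nucleus/cytoplasm intensity ratio per well normalized to Torin-1 (100%) and DMSO (0%).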

Setting [3] is: U2OS cell line with TFEB reporter, 2 hours incubation, nucleus to cytoplasm ratio, normalized to Torin-1.

SMILES strings stand for the structures. Where a name gives a salt, the structure may show the parent alone. Read-outs that look alike come from different tables or passages of the source.

T1 sequence (Q9GZU1 whole entry): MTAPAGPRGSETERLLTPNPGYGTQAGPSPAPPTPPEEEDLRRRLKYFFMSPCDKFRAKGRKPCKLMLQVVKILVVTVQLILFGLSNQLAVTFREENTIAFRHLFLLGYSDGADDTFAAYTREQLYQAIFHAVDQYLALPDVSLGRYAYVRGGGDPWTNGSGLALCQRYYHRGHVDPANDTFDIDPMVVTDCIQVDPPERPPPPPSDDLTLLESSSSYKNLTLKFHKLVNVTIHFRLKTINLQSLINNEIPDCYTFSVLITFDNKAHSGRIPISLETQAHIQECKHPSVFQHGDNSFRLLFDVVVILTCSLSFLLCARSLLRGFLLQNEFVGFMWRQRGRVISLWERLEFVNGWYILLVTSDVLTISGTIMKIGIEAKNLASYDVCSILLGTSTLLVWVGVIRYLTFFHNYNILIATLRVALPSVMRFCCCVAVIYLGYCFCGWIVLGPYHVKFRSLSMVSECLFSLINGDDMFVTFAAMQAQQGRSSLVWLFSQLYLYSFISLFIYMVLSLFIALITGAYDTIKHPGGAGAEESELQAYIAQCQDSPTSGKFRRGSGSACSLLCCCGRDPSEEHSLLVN

`CCN(C)Cc1oc(N2CC(C)(OC)C2)nc1C(=O)Nc1cc(F)c(OC2CC3CC(C3)C2)c(F)c1` (stereo not shown) [Example 307, N-(4-(bicyclo[3.1.1]heptan-3-yloxy)-3,5-difluorophenyl)-5-((ethyl(methyl)amino)methyl)-2-(3-methoxy-3-methylazetidin-1-yl)oxazole-4-carboxamide hydrochloride]: the EC50 in test [1] and in test [2] (setting [3]) was 10 to 1000 nM throughout.
Consider `O=C(Nc1cc(F)c(O[C@@H]2C[C@@H]3C[C@@H]3C2)c(F)c1)c1nc(N2CCCC2)oc1CN1CCCC1` [Example 308, N-(4-(cis-bicyclo[3.1.0]hexan-3-yloxy)-3,5-difluorophenyl)-2-(pyrrolidin-1-yl)-5-(pyrrolidin-1-ylmethyl)oxazole-4-carboxamide hydrochloride], for which the EC50 in test [1] and in test [2] (setting [3]) was 10 to 1000 nM throughout.
On to `CCN(C)Cc1oc(N2CC(CC)(OC)C2)nc1C(=O)Nc1cc(O)c(OC2CC3CC(C3)C2)c(F)c1` (stereo not shown) [Example 309, N-(4-(bicyclo[3.1.1]heptan-3-yloxy)-3-fluoro-5-hydroxyphenyl)-5-((ethyl(methyl)amino)methyl)-2-(3-ethyl-3-methoxyazetidin-1-yl)oxazole-4-carboxamide], for which the EC50 in test [1] was 1000 to 10000 nM; in test [2] (U2OS, 2 h), 1000 to 10000 nM.
For the compound `O=C(Nc1cc(F)c2c(c1)CCN2C1CC2CC2C1)c1nc(N2CCCC2)oc1CC(F)(F)F` (stereo not shown) [Example 315, N-(1-(bicyclo[3.1.0]hexan-3-yl)-7-fluoroindolin-5-yl)-2-(pyrrolidin-1-yl)-5-(2,2,2-trifluoroethyl)oxazole-4-carboxamide], the values for the EC50 in test [1] and in test [2] (setting [3]) were 1000 to 10000 nM and 10 to 1000 nM, respectively.
The like results for `CCc1oc(N2CC(CC)(CC)C2)nc1C(=O)Nc1cc(F)c2c(c1)CCN2C1CC2CC2C1` (stereo not shown) [Example 316, N-(1-(bicyclo[3.1.0]hexan-3-yl)-7-fluoroindolin-5-yl)-2-(3,3-diethylazetidin-1-yl)-5-ethyloxazole-4-carboxamide] were, in that order, 10 to 1000 nM and 10 to 1000 nM.
